Entries after “also recorded” stand apart in the source; their conditions may differ. One block for each compound: values may come before it.
Legend:
TGT homodimer = system: T1, TGT homodimer; experiment: Native ESI-MS of TGT:ligand 1:10 mixtures (dimer destabilization); design: species or system Zymomonas mobilis; settings: for Relative proportion of TGT monomers: 2.5 µM TGT and 25 µM inhibitor (1:10), 1 M NH4Ac pH 7.5, without ligand 3.3 ± 0.7 %; for effect on TGT dimer stability / monomer proportion, in words: compared to measurements in the absence of any ligand, TGT:ligand 1:10
T1 construct: Strep-tag II (N, cleaved yes); made in house; host or cells: Escherichia coli
Method: In order to gain insights into the dimer disturbing potential seen in the crystal structures with the different ligands and to collect evidence for such a behavior also present in solution, native ESI-MS was performed. This technique enables to monitor the oligomerization state of TGT at equilibrium under non-denaturing conditions, in the absence or presence of saturating ligand concentrations. […] To ensure reliability, these comparative experiments were thus carried out adhering to strictly similar conditions (see Materials and methods).
Relative proportions of TGT-monomer signals extracted from individual 1:10 TGT:ligand mixtures (TGT monomer 2.5 μM) were quantified (S7 Fig, S1 Table) and normalized with respect to this value in the absence of any inhibitor.
Nano-ESI-MS analyses were performed as already described in the literature. Briefly, WT-TGT samples were exchanged twice against a 1 M ammonium acetate pH 7.5 buffer using microcentrifuge gel-filtration columns (Zeba 0.5 mL, Thermo Scientific). Next, protein concentration was determined spectrophotometrically at 280 nm (Nano-Drop 2000 spectrophotometer, Thermo Scientific).
Native MS experiments were carried out on a hybrid Q-TOF mass spectrometer (Synapt G2 HDMS, Waters) equipped with an automated chip-based nanoESI source (Triversa Nanomate, Advion Biosciences) operating in the positive ion mode. External calibrations were generated from the multiple charged ions produced by a 2 μM horse heart myoglobin solution diluted in a 1:1 (v/v) water: acetonitrile mixture acidified with 1% (v/v) formic acid (denaturing MS) and singly charged cesium iodide clusters diluted to 2 g∙L^-1 in a 1:1 (v/v) water: isopropanol solution (native MS).
Titration experiments in native conditions (1 M NH4Ac pH 7.5) were next triggered by mixing 2.5 μM TGT monomers with 25 μM of each ligand separately (ratio 1:10). The final DMSO concentration of each mixture never exceeded 0.25% (v/v). Non-covalent TGT dimers and TGT-ligand complexes were preserved in the gas phase according fine-tuned instrumental parameters, improving ion desolvation and transmission while maintaining intact structures (Vc = 80V, Pi = 6 mbar).
Relative quantification of TGT monomers was performed from charge states peak intensities of both monomeric (10 to 14+) and dimeric complexes (15 to 20+), using MassLynx 4.1 (Waters). TGT dimer disruption was determined for each ligand through their destabilization factor (Fig 8) which corresponds to their associated ratio of TGT monomers normalized from the apo-condition (S7 Fig; S1 Table). Standard deviations are calculated here from analytical triplicates. For the sake of reliability and comparability, all these experiments were performed within the same day, from identical experimental and instrumental conditions using the same buffer exchanged TGT batch (frozen and thawed only once).

Z. mobilis TGT [1] = target: T2, Z. mobilis TGT (Zymomonas mobilis subsp. mobilis, UniProt P28720); experiment: Isothermal titration calorimetry (ITC) of ligand binding to TGT; settings: for thermodynamic binding signature in words / Kd / ΔG^0: ITC; for Kd: 298 K, direct titration; for ΔG^0: calculated at 298.15 K; for ΔH^0bind: ionization corrected (intercept of ΔH^0obs vs buffer ΔH^0ion); for -TΔΔS^0 / ΔΔH^0: relative to 1 used as reference; for protons picked up during binding: slope of linear regression, average over inhibitors 2 and 5
T2 construct: Strep-tag II (N, cleaved yes); made in house; host or cells: Escherichia coli
T2 sequence (P28720 whole entry): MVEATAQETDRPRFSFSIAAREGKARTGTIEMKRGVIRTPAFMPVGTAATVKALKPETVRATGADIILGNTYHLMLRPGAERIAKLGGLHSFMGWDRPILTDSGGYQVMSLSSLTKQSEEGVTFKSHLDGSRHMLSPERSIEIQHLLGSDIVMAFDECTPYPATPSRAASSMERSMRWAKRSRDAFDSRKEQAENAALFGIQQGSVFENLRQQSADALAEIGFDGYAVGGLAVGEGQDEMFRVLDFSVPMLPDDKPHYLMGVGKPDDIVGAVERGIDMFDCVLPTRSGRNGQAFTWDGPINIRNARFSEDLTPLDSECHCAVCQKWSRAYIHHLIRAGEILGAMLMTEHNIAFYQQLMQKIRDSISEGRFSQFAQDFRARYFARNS
From the text: To further analyze the binding properties of ligands studied in this contribution we decided to establish the thermodynamic analysis of a representative subset via isothermal titration calorimetry (ITC) (data for 1 had been determined previously). ITC enables the simultaneous determination of affinity (Kd) and stoichiometry (n) as well as enthalpic contribution (ΔH^0). The entropic (-TΔS^0) term to Gibbs free energy (ΔG^0 = ΔH^0—TΔS^0) results from ΔG^0–ΔH^0 difference. Due to insufficient availability of some compounds in high purity, quantity and sufficient solubility to perform proper ITC measurements, we decided to focus our investigation on 1, 2, 3 and 5.
We recently discovered that the binding of lin-benzoguanine derivatives is associated with protonation effects that are superimposed to the heat signal of ligand binding to TGT. […] Such protonation effects become transparent when ITC measurements are performed from at least three different buffers (see Materials and methods). The overlaid […] of the protonation step was determined as the intersection of the linear regression line obtained by plotting the observed enthalpies of the studied ligands (ΔH^0obs) against the heat of ionization of the corresponding buffers (ΔH^0ion) (Fig 9a). […] The examined inhibitors 2 and 5, on average receive 0.61 ± 0.04 protons per mole of the formed complex, which is in reasonable agreement with the results obtained for 1 (0.89) and similar compounds [29].
ITC measurements were performed using a Microcal ITC200 calorimeter system from GE Healthcare. Z. mobilis TGT was dissolved in the ITC buffer (50 mM HEPES/Tricin/TRIS pH 7.8, 200 mM NaCl, 0.037% (v/v) Tween 20 and 3% (v/v) DMSO) to a final concentration of 10–20 μM.
The inhibitors were first dissolved in 100% (v/v) DMSO and diluted with the buffer solution to a final DMSO concentration of 3% (v/v). The concentration of the inhibitor in the syringe was adjusted to 200–300 μM with the ITC buffer. The reference cell contained filtered demineralized water. […] The initial delay before the injections were started was adjusted to 180–300 s and the spacing between each injection to 150–180 s. The first injection contained 0.3–0.6 μL of the inhibitor solution followed by injections of 1.0–2.4 μL until a saturation occurred. A stirring speed of 750 rpm was chosen. Raw data were collected as released heat per time. The direct titrations were done in three different buffers (HEPES/Tricin/TRIS) to correct for the overlaid protonation effect as previously described.The measured ΔH^0obs were plotted on the ordinate and the ionization enthalpy of the corresponding buffer ΔH^0ion on the abscissa (Fig 9). The positive slope of the linear regression line indicates how many protons per mole of formed complex are entrapped.
For estimation of binding affinity (Kd), Z. mobilis TGT was incubated with 90–100% saturation of inhibitor 3. Protein saturation was calculated according Rühmann et al. (2015). Inhibitor 1 as strong titrant was used to displace inhibitor 3.
For analysis of the raw data, peak integration, model fitting and evaluation, the programs NITPIC [57] and SEDPHAT [58] were used. The initial injection peak was removed and the areas of the remaining peaks were integrated. The correction of the heats of dilution was conducted by subtraction of the final constant injection peak area integrals. The A+B ↔ AB hetero-association model (1:1 stoichiometry) was applied, whereby ΔH^0 and Kd were directly obtained. The ΔG^0 and -TΔS^0 values were calculated using a temperature of 298.15 K. For illustration of the integrated raw data and the ITC isotherms, the program GUSSI was used. Obtained thermodynamic data per buffer are reported as mean values averaged over at least three measurements.

Z. mobilis TGT [2] = target: T2, Z. mobilis TGT; settings: cited from earlier work; for Ki / affinity as described in words: radio-labeled assay, determined previously
[3] = Ligand dilution in native MS buffer (precipitation); type: physicochemical; settings: 1 M NH4Ac pH 7.5
[4] = HEPES buffer, Gibbs-Helmholtz equation
[5] = TRIS buffer, Gibbs-Helmholtz equation
[6] = Tricin buffer, Gibbs-Helmholtz equation

heat signal in ITC displacement titration (Z. mobilis TGT [1]; TGT 100% saturated with 3, 1 as titrant, HEPES): again no heat signal was recorded
binding constant from ITC displacement experiments, in words (Z. mobilis TGT [1]; TGT saturated about 90% with 3, 1 as titrant): falls close to that of 1
SMILES: CNc1nc2c(CC[C@H]3O[C@@H](OC)[C@H](O)[C@@H]3OC)c3nc(N)[nH]c(=O)c3cc2[nH]1 [Inhibitor 3]
Relative proportion of TGT monomers (TGT homodimer): 9.6%
effect on TGT dimer stability / monomer proportion, in words (TGT homodimer): slightly increased proportion of TGT monomer
heat signal in ITC, direct titration of ligand to TGT (Z. mobilis TGT [1]; HEPES, Tricin, TRIS buffers, also up to 308 K in HEPES): no heat effects at all could be detected; also recorded: no detectable heat signal
thermodynamic binding signature in words (Z. mobilis TGT [1]): overwhelmingly entropy-driven; also recorded: pure entropically-driven binding signature
Ki / affinity as described in words (Z. mobilis TGT [2]): submicromolar; also recorded: three-digit nanomolar

SMILES: Cc1ccc(CCc2c3nc[nH]c3cc3c(=O)[nH]c(N)nc23)cc1 [Inhibitor 8]
Relative proportion of TGT monomers (TGT homodimer): 7.1%
effect on TGT dimer stability / monomer proportion, in words (TGT homodimer): slightly increased proportion of TGT monomer

ΔH^0obs (Z. mobilis TGT [1]; HEPES buffer): -9.61 ± 0.526 kcal/mol
-TΔS^0 (Z. mobilis TGT [1]; [4]): 0.574 ± 0.502 kcal/mol
thermodynamic binding signature in words (Z. mobilis TGT [1]): more enthalpically favored binder
Kd (Z. mobilis TGT [1]): 275 ± 49 nM
ΔG^0 (Z. mobilis TGT [1]): -9.06 ± 0.096 kcal/mol
ΔH^0obs (Z. mobilis TGT [1]; TRIS buffer): -5.62 ± 0.478 kcal/mol
-TΔS^0 (Z. mobilis TGT [1]; [5]): -3.37 ± 0.382 kcal/mol
ΔH^0obs (Z. mobilis TGT [1]; Tricin buffer): -8.51 ± 0.765 kcal/mol
-TΔS^0 (Z. mobilis TGT [1]; [6]): -0.645 ± 0.645 kcal/mol
-TΔS^0 (Z. mobilis TGT [1]; ionization corrected): 3.8 kcal/mol
ΔH^0bind (Z. mobilis TGT [1]): -12.9 kcal/mol
-TΔΔS^0 (Z. mobilis TGT [1]; ionization corrected): -8.63 kcal/mol
ΔΔH^0 (Z. mobilis TGT [1]; ionization corrected): 9.49 kcal/mol
SMILES: CNc1nc2c(CC[C@H]3O[C@@H](OC)[C@H](O)[C@@H]3O)c3nc(N)[nH]c(=O)c3cc2[nH]1 [Inhibitor 2]
Relative proportion of TGT monomers (TGT homodimer): 5.3%
effect on TGT dimer stability / monomer proportion, in words (TGT homodimer): No effect on dimer stability
protons picked up during binding (Z. mobilis TGT [1]): 0.61 ± 0.04 protons per mole of the formed complex
Ki (Z. mobilis TGT [2]): 217 ± 81 nM
Ki / affinity as described in words (Z. mobilis TGT [2]): three-digit nanomolar

ΔH^0obs (Z. mobilis TGT [1]; HEPES buffer): -12 ± 0.813 kcal/mol
-TΔS^0 (Z. mobilis TGT [1]; [4]): 1.48 ± 0.884 kcal/mol
Kd (Z. mobilis TGT [1]): 32 ± 9 nM
ΔG^0 (Z. mobilis TGT [1]): -10.3 ± 0.19 kcal/mol
ΔH^0obs (Z. mobilis TGT [1]; TRIS buffer): -8.2 ± 0.526 kcal/mol
-TΔS^0 (Z. mobilis TGT [1]; [5]): -1.98 ± 0.335 kcal/mol
ΔH^0obs (Z. mobilis TGT [1]; Tricin buffer): -10.3 ± 0.98 kcal/mol
-TΔS^0 (Z. mobilis TGT [1]; [6]): 0.12 ± 0.789 kcal/mol
-TΔS^0 (Z. mobilis TGT [1]; ionization corrected): 4.49 kcal/mol
ΔH^0bind (Z. mobilis TGT [1]): -14.8 kcal/mol
-TΔΔS^0 (Z. mobilis TGT [1]; ionization corrected): -7.93 kcal/mol
ΔΔH^0 (Z. mobilis TGT [1]; ionization corrected): 7.58 kcal/mol
SMILES: CNc1nc2c(CCNCC3CCCC3)c3nc(N)[nH]c(=O)c3cc2[nH]1 [Inhibitor 5]
Relative proportion of TGT monomers (TGT homodimer): 4.2%
effect on TGT dimer stability / monomer proportion, in words (TGT homodimer): No effect on dimer stability
protons picked up during binding (Z. mobilis TGT [1]): 0.61 ± 0.04 protons per mole of the formed complex
Ki (Z. mobilis TGT [2]): 2 ± 1 nM
Ki / affinity as described in words (Z. mobilis TGT [2]): single-digit nanomolar

SMILES: CNc1nc2c(CCNCC3CCCCC3)c3nc(N)[nH]c(=O)c3cc2[nH]1 [Inhibitor 6]
Relative proportion of TGT monomers (TGT homodimer): 2.5%
effect on TGT dimer stability / monomer proportion, in words (TGT homodimer): did not exert any influence on dimer stability
precipitation upon ligand dilution in buffer [3]: partial precipitation; also recorded: apparent precipitation
Ki / affinity as described in words (Z. mobilis TGT [2]): single-digit nanomolar

SMILES: COc1ccc(CCc2c3nc[nH]c3cc3c(=O)[nH]c(N)nc23)cc1 [Inhibitor 7]
Relative proportion of TGT monomers (TGT homodimer): 9.4%
effect on TGT dimer stability / monomer proportion, in words (TGT homodimer): slightly increased proportion of TGT monomer

SMILES: Nc1nc2cc3nc[nH]c3cc2c(=O)[nH]1 [lin-benzoguanine, reference compound]
Ki (Z. mobilis TGT [2]): 4100 ± 1000 nM

SMILES: Nc1nc2c(CCc3ccccc3)c3nc[nH]c3cc2c(=O)[nH]1 [Inhibitor 9]
Relative proportion of TGT monomers (TGT homodimer): 12.6%
effect on TGT dimer stability / monomer proportion, in words (TGT homodimer): slightly increased proportion of TGT monomer; also recorded: most significant increase of normalized monomer proportion
